# From the Kinase Knowledgebase extract (Sharma et al. 2016)
# Columns and labels:
# PIK3CA (human) [1] = molecular target: PIK3CA (human) (UniProt P42336); test: Assessment of PIK3CA Kinase Activity in SKOV-3 Cells
# PIK3CG (human) = PIK3CG (human) (UniProt P48736); test: Assessment of PIK3CG Kinase Activity
# PIK3CD (Human) [2] = molecular target: PIK3CD (Human) (UniProt O00329); test: Assessment of PIK3CD Kinase Activity
# PIK3CD (Human) [3] = molecular target: PIK3CD (Human) (UniProt O00329); test: Assessment of PIK3CD Kinase Activity in RAJI Cells
# PIK3CB (Human) = PIK3CB (Human) (UniProt P42338); test: Assessment of PIK3CB Kinase Activity
# PIK3CA (human) [4] = molecular target: PIK3CA (human) (UniProt P42336); test: Assessment of PIK3CA Kinase Activity
# PIK3CB (Human), sequence (P42338 whole entry, looked up): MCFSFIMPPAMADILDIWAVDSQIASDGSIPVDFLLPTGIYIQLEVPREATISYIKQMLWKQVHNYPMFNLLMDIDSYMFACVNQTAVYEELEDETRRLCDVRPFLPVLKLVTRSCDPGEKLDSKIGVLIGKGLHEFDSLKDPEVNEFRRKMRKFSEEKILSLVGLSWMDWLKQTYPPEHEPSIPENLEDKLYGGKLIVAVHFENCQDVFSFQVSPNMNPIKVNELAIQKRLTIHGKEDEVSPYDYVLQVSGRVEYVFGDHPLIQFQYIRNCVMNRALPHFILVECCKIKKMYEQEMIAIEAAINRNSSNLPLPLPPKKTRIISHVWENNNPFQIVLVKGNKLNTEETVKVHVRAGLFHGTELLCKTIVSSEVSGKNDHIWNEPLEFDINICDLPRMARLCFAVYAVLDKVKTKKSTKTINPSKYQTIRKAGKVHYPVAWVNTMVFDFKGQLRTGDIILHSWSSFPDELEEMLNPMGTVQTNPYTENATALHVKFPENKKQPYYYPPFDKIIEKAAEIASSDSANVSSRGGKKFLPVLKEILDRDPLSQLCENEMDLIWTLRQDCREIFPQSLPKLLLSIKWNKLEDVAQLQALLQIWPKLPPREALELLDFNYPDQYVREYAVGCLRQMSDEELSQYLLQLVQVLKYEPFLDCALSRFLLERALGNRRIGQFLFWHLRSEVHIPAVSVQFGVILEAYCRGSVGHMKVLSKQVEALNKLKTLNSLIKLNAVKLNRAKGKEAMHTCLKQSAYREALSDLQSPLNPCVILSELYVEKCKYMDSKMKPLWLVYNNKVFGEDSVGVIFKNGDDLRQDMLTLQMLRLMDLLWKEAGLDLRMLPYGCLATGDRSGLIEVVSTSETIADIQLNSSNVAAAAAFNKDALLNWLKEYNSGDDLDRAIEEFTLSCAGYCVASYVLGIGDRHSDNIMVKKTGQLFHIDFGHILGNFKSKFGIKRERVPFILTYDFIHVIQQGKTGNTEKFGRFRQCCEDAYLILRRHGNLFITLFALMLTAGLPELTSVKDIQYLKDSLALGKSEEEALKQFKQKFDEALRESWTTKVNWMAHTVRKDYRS
# PIK3CG (human), sequence (P48736 whole entry, looked up): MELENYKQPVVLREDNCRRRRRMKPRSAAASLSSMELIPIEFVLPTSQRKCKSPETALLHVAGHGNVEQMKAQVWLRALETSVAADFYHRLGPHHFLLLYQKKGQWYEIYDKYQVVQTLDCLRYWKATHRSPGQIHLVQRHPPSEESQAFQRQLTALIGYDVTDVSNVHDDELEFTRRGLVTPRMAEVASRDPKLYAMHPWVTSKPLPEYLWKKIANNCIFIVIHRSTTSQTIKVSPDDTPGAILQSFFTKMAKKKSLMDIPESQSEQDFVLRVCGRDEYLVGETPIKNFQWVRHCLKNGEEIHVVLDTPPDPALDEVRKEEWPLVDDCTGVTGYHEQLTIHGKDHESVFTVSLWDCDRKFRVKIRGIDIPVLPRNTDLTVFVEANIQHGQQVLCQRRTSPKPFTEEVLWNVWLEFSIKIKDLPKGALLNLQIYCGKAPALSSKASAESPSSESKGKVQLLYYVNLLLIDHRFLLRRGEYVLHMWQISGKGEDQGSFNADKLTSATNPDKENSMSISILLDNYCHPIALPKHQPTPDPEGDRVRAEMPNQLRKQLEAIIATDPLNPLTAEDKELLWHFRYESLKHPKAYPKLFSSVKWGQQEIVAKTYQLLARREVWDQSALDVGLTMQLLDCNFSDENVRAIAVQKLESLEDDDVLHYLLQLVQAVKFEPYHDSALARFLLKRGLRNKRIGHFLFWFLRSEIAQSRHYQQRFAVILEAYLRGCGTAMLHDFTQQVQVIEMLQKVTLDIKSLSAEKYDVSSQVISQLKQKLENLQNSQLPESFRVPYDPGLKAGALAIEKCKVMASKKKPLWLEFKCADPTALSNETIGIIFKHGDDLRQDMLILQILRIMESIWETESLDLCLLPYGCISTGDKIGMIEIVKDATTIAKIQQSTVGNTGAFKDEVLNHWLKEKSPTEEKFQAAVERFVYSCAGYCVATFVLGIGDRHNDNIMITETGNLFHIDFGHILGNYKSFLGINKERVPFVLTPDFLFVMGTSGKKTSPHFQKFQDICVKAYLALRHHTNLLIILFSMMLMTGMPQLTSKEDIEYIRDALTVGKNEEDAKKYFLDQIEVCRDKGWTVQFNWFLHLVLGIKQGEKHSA
# PIK3CA (human), sequence (P42336 whole entry, looked up): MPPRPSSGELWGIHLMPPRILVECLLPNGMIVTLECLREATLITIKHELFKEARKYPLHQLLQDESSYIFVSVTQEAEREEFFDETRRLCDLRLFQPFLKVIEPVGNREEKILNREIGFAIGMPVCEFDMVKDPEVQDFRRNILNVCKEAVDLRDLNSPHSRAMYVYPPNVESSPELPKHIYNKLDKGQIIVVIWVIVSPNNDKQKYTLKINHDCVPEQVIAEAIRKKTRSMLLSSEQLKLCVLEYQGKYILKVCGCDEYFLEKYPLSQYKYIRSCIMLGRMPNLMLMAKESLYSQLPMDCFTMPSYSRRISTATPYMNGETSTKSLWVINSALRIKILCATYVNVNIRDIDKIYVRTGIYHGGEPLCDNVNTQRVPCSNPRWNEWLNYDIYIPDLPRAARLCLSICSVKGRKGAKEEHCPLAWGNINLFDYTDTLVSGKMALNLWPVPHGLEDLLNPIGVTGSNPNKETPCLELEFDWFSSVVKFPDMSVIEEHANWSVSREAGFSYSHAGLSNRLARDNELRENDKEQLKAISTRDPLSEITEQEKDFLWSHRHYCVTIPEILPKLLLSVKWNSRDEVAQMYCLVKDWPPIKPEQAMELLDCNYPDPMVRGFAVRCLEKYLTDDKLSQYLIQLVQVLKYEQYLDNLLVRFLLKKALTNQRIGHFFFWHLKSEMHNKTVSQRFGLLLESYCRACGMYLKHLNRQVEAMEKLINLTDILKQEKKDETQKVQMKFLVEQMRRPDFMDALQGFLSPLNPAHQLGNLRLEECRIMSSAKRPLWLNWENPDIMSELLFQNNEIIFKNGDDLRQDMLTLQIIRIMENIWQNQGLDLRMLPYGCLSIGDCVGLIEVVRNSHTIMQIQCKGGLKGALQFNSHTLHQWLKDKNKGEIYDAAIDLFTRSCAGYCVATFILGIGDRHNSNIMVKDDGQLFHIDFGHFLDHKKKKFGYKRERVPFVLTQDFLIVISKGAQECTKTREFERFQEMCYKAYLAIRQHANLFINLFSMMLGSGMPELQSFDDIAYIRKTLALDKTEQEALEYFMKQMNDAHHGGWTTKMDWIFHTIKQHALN
# PIK3CD (Human), sequence (O00329 whole entry, looked up): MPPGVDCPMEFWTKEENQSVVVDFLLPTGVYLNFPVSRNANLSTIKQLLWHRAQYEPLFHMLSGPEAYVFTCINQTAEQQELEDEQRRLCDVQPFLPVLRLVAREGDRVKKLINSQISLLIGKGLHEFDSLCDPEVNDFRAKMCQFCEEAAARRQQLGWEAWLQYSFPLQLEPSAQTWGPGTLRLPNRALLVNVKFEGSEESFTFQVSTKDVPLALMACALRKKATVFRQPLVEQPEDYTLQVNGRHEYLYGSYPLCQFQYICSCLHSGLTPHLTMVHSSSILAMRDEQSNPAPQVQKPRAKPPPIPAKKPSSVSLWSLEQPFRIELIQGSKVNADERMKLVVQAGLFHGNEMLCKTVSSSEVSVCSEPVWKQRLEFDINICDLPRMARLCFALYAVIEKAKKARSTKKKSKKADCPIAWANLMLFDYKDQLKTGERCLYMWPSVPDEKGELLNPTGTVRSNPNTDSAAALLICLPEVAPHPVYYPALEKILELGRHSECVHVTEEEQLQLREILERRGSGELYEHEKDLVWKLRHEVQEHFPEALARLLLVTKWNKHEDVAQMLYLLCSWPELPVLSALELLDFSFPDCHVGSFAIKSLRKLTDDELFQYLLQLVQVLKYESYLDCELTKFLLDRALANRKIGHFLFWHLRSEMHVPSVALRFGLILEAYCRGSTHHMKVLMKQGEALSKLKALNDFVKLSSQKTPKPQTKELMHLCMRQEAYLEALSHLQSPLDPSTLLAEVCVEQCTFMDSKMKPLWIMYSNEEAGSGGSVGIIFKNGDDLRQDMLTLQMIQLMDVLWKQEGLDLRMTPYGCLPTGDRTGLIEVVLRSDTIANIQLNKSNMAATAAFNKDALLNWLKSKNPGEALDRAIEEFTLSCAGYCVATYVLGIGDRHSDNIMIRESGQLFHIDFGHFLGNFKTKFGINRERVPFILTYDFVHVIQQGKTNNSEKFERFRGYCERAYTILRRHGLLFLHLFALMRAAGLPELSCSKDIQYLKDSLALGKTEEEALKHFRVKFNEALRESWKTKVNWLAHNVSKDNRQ
Compound,IC50 (PIK3CA (human) [1]) [nM],IC50 (PIK3CG (human)) [nM],IC50 (PIK3CD (Human) [2]) [nM],IC50 (PIK3CD (Human) [3]) [nM],IC50 (PIK3CB (Human)) [nM],IC50 (PIK3CA (human) [4]) [nM]
CC(C)n1c([C@H](C)Nc2ncnc3cccnc23)cc2cccc(-c3ccc(=O)n(C)c3)c2c1=O,–,–,100 to 1000,< 100,–,–
C[C@H](Nc1ncnc2cccnc12)c1cc2cccc(-c3cnn(C)c3)c2c(=O)n1-c1ccccc1,–,< 100,< 100,< 100,> 10000,–
C[C@H](Nc1cc(Cl)ncc1C(N)=O)c1cc2cccc(Cl)c2c(=O)n1-c1ccccc1,–,100 to 1000,100 to 1000,–,> 10000,> 10000
COc1ncc(-c2cccc3cc([C@H](C)Nc4nc(N)nc5cccnc45)n(-c4ccccc4)c(=O)c23)cn1,–,< 100,< 100,–,> 10000,> 10000

# Continued, values first:
IC50 (PIK3CA (human) [1]) [nM],IC50 (PIK3CG (human)) [nM],IC50 (PIK3CD (Human) [2]) [nM],IC50 (PIK3CD (Human) [3]) [nM],IC50 (PIK3CB (Human)) [nM],IC50 (PIK3CA (human) [4]) [nM],Compound
100 to 1000,< 100,< 100,< 100,> 10000,–,C[C@H](Nc1nc(N)nc2cccnc12)c1nc2cccc(-c3cnn(C)c3)c2c(=O)n1-c1ccccc1
–,< 100,< 100,< 100,> 10000,–,Cc1ncc(-c2cccc3nc([C@H](C)Nc4nc(N)nc5cccnc45)n(-c4ccccc4)c(=O)c23)cn1
–,< 100,< 100,< 100,–,–,C[C@H](Nc1ncnc2[nH]cnc12)c1cc2cccc(C(F)(F)F)c2c(=O)n1-c1cccc(F)c1
–,< 100,< 100,< 100,> 10000,–,COc1ncc(-c2cccc3nc([C@H](C)Nc4nc(N)nc5cccnc45)n(-c4ccccc4)c(=O)c23)cn1
